Assays:
Assay in all cases: relative viability (nuclei count vs DMSO), 5 days (fraction); higher = more cells survive
[1] = system: NCI-H358
Method in brief: (§1)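 Relative viability equals treated-well nuclei counts divided by vehicle-well nuclei counts. Counts came from 4× images of lung cancer cell lines grown in 1536-well plates for 5 days after pin-tool dosing on the day after seeding. Dosing used one drug alone or a fixed anchor-drug dose plus five library-drug doses (not always all listed) in √10 steps, and values are medians of duplicate plates.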

[2] = system: HCC-15
Method in brief: as §1

[3] = system: NCI-H3122
Method in brief: as §1

[4] = system: LXF-289
Method in brief: as §1

[5] = system: CAL-12T
Method in brief: as §1

[6] = system: NCI-H1975
Method in brief: as §1

[7] = system: NCI-H2126
Method in brief: as §1

[8] = system: NCI-H2023
Method in brief: as §1

[9] = system: NCI-H1755
Method in brief: as §1

[10] = system: EMC-BAC-2
Method in brief: as §1

[11] = system: NCI-H441
Method in brief: as §1

CC(=O)O[C@@]12CO[C@@H]1C[C@H](O)[C@@]1(C)C(=O)[C@H](O)C3=C(C)[C@@H](OC(=O)[C@H](O)[C@@H](NC(=O)OC(C)(C)C)c4ccccc4)C[C@@](O)([C@@H](OC(=O)c4ccccc4)[C@H]21)C3(C)C [Docetaxel] + Cc1nc(NC(=O)N2CCC[C@H]2C(N)=O)sc1-c1ccnc(C(C)(C)C(F)(F)F)c1 [Alpelisib] (partner 2 µM)
relative viability ([1]; first compound 0.002 µM): 0.267
relative viability ([1]; first compound 0.02 µM): 0.111
relative viability ([2]; first compound 0.0002 µM): 0.805
relative viability ([2]; first compound 0.000632 µM): 0.467
relative viability ([2]; first compound 0.002 µM): 0.196
relative viability ([2]; first compound 0.006325 µM): 0.208
relative viability ([2]; first compound 0.02 µM): 0.118
relative viability ([3]; first compound 0.0002 µM): 0.719
relative viability ([3]; first compound 0.000632 µM): 0.753
relative viability ([3]; first compound 0.002 µM): 0.764
relative viability ([3]; first compound 0.006325 µM): 0.318
relative viability ([3]; first compound 0.02 µM): 0.186
relative viability ([4]; first compound 0.0002 µM): 1.09
relative viability ([4]; first compound 0.000632 µM): 0.577
relative viability ([4]; first compound 0.002 µM): 0.59
relative viability ([4]; first compound 0.006325 µM): 0.119
relative viability ([4]; first compound 0.02 µM): 0.0912
relative viability ([5]; first compound 0.0002 µM): 1.06
relative viability ([5]; first compound 0.000632 µM): 0.699
relative viability ([5]; first compound 0.002 µM): 0.201
relative viability ([5]; first compound 0.02 µM): 0.154
relative viability ([6]; first compound 0.0002 µM): 0.617
relative viability ([6]; first compound 0.000632 µM): 0.437
relative viability ([6]; first compound 0.006325 µM): 0.156
relative viability ([6]; first compound 0.02 µM): 0.122
relative viability ([7]; first compound 0.0002 µM): 0.781
relative viability ([7]; first compound 0.000632 µM): 0.753
relative viability ([7]; first compound 0.002 µM): 0.541
relative viability ([7]; first compound 0.006325 µM): 0.321
relative viability ([7]; first compound 0.02 µM): 0.231
relative viability ([8]; first compound 0.0002 µM): 0.49
relative viability ([8]; first compound 0.000632 µM): 0.553
relative viability ([8]; first compound 0.002 µM): 0.128
relative viability ([8]; first compound 0.006325 µM): 0.137
relative viability ([8]; first compound 0.02 µM): 0.0735
relative viability ([9]; first compound 0.0002 µM): 0.871
relative viability ([9]; first compound 0.000632 µM): 0.792
relative viability ([9]; first compound 0.002 µM): 0.434
relative viability ([9]; first compound 0.006325 µM): 0.326
relative viability ([9]; first compound 0.02 µM): 0.262
relative viability ([10]; first compound 0.0002 µM): 0.694
relative viability ([10]; first compound 0.000632 µM): 0.626
relative viability ([10]; first compound 0.002 µM): 0.385
relative viability ([10]; first compound 0.006325 µM): 0.246
relative viability ([10]; first compound 0.02 µM): 0.154
relative viability ([11]; first compound 0.0002 µM): 0.579
relative viability ([11]; first compound 0.000632 µM): 0.677
relative viability ([11]; first compound 0.002 µM): 0.323
relative viability ([11]; first compound 0.006325 µM): 0.205
relative viability ([11]; first compound 0.02 µM): 0.172
